Each structure is given as a SMILES string.

The target of one data set is T1, human OATP2B1 (Homo sapiens, UniProt O94956).
T1 sequence (O94956 1-709): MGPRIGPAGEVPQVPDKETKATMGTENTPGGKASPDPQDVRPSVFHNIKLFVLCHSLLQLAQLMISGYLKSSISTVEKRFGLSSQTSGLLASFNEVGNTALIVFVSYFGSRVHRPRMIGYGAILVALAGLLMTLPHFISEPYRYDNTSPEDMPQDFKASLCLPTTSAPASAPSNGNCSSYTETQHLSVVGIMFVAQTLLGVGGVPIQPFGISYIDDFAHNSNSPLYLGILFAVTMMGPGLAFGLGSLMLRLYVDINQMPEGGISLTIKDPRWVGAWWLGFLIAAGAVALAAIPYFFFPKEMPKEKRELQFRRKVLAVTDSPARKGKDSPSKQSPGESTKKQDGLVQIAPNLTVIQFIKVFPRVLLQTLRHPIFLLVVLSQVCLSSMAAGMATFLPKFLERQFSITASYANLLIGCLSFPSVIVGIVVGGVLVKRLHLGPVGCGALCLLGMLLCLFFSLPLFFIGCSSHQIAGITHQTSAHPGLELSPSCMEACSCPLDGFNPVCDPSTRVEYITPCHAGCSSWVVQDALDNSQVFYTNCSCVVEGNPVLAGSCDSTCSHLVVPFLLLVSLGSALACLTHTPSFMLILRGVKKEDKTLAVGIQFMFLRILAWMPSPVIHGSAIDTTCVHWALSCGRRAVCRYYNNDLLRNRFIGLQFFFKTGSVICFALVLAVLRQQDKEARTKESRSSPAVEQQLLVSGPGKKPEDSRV
The conditions noted are these: 10 min, 100 μM.

The target of the next data set is T2, rat Oatp1a1 (Rattus norvegicus, UniProt P46720).
T2 sequence (P46720 1-670): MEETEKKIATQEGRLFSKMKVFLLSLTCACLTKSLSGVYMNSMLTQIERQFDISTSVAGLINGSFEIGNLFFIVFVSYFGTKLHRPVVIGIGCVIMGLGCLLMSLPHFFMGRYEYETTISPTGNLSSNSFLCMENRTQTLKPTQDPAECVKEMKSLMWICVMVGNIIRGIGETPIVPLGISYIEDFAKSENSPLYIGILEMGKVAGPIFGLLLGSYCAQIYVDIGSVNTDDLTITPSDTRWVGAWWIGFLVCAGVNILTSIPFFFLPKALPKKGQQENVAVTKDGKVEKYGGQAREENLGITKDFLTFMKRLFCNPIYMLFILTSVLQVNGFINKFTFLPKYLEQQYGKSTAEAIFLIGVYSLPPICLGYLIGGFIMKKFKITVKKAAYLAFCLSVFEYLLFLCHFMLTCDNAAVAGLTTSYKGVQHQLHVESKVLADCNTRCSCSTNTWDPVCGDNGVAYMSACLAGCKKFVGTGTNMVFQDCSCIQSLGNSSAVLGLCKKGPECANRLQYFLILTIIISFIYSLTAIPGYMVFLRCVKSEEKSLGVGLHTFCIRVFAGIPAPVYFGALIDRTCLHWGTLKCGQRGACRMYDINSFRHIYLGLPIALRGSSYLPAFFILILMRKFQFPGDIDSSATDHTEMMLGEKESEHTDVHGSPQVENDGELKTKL
The conditions noted are these: 10 min, 100 μM.

The target in the next data set is T3, rat Oct2 (Rattus norvegicus, UniProt Q9R0W2).
T3 sequence (Q9R0W2 1-555): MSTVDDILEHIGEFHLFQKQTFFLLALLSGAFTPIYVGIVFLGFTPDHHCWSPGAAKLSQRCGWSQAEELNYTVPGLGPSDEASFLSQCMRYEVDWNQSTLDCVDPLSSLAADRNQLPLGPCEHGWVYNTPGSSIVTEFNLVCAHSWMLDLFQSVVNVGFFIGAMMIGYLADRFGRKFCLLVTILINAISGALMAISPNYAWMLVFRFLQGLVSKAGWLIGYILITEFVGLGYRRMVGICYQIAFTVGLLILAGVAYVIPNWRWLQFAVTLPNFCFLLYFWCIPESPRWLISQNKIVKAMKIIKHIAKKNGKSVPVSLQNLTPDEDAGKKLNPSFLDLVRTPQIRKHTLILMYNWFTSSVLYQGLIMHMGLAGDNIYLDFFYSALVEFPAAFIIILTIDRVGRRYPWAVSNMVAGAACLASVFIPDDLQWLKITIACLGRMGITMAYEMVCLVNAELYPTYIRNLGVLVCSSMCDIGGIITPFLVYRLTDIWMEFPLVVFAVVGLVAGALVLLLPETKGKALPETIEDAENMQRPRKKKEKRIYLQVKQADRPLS
Conditions: 10 min, 100 μM.

In a further data set the target is T4, rat Pept2 (Rattus norvegicus, UniProt Q63424).
T4 sequence (Q63424 1-729): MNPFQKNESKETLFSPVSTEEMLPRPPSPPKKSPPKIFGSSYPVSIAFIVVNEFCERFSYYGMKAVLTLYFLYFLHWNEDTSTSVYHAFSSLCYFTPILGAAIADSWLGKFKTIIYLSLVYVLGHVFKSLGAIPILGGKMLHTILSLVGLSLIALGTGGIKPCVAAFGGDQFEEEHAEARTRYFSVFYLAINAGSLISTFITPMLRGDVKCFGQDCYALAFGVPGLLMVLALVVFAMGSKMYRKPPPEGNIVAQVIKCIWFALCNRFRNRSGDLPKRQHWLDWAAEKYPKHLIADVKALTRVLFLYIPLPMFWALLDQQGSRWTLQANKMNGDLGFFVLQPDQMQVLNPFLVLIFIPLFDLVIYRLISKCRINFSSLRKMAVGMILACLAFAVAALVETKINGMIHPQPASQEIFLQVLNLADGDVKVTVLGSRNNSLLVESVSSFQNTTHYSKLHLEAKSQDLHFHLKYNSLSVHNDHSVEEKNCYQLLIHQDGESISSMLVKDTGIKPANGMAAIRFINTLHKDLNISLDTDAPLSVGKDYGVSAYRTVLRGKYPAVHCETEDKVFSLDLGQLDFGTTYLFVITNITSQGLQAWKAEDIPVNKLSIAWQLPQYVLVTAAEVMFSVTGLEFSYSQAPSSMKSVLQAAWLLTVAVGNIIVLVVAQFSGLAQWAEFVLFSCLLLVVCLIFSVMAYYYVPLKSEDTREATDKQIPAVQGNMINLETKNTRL
The conditions noted are these: 10 min, 100 μM, pH 6.

Take `O=C(/C=C/c1ccc(O)c(O)c1)O[C@H](Cc1ccc(O)c(O)c1)C(=O)O` [Rosmarinic acid, rosmarinic acid]: the “TransportTC/TransportMC ratio (net transport ratio)” value on human OATP2B1 stood at 1.69 ± 0.71; at rat Oatp1a1, 1.45 ± 0.57; on rat Oct2, 0.75 ± 0.32; at rat Pept2, 0.84 ± 0.17.

Take `O=C(/C=C/c1ccc(O)c(O)c1/C=C/c1ccc(O)c(O)c1)O[C@H](Cc1ccc(O)c(O)c1)C(=O)O` [Salvianolic acid A, salvianolic acid A]: the “TransportTC/TransportMC ratio (net transport ratio)” value is 2.45 ± 0.34 at human OATP2B1, 2.24 ± 0.67 at rat Oatp1a1, 0.94 ± 0.33 on rat Oct2 and 0.84 ± 0.19 on rat Pept2.

Source of the values: article PMC9127186, “Molecular Basis Underlying Hepatobiliary and Renal Excretion of Phenolic Acids of Salvia miltiorrhiza Roots (Danshen)” (Frontiers in Pharmacology, 2022).
